Test results from a compilation of properties of binary mixtures (doi:10.1016/j.molliq.2014.08.031).

Assay: xn = mol fraction of the nth substance listed
Conditions: 101 kPa

CCCC[n+]1ccn(C)c1.CS(=O)(=O)[O-] + O
Conditions	electrical conductivity [S/m]	viscosity [mPa·s]
328.15 K, x2 = 0.796	3.01	–
328.15 K, x2 = 0.861	5.12	–
328.15 K, x2 = 0.892	6.23	–
328.15 K, x2 = 0.929	7.21	–
328.15 K, x2 = 0.968	7	–
329.15 K, x1 = 0.004	2.04	–
329.15 K, x1 = 0.008	3.67	–
329.15 K, x1 = 0.019	5.81	–
329.15 K, x2 = 0.785	2.9	–
329.15 K, x2 = 0.796	3.05	–
329.15 K, x2 = 0.861	5.25	–
329.15 K, x2 = 0.892	6.26	–
329.15 K, x2 = 0.929	7.35	–
329.15 K, x2 = 0.951	7.83	–
330.15 K, x1 = 0.004	2.09	–
330.15 K, x1 = 0.008	3.72	–
330.15 K, x1 = 0.019	5.88	–
330.15 K, x2 = 0.704	1.84	–
330.15 K, x2 = 0.785	2.98	–
330.15 K, x2 = 0.861	5.37	–
330.15 K, x2 = 0.892	6.36	–
330.15 K, x2 = 0.929	7.5	–
330.15 K, x2 = 0.951	7.95	–
330.15 K, x2 = 0.968	7.38	–
331.15 K, x1 = 0.004	2.13	–
331.15 K, x1 = 0.008	3.77	–
331.15 K, x2 = 0.785	3.04	–
331.15 K, x2 = 0.796	3.2	–
331.15 K, x2 = 0.892	6.46	–
331.15 K, x2 = 0.929	7.61	–
331.15 K, x2 = 0.951	8.05	–
331.15 K, x2 = 0.968	7.39	–
332.15 K, x1 = 0.004	2.15	–
332.15 K, x1 = 0.008	3.83	–
332.15 K, x1 = 0.019	6.06	–
332.15 K, x2 = 0.704	1.99	–
332.15 K, x2 = 0.785	3.13	–
332.15 K, x2 = 0.796	3.29	–
332.15 K, x2 = 0.861	5.61	–
332.15 K, x2 = 0.892	6.57	–
332.15 K, x2 = 0.968	7.57	–
333.15 K, x1 = 0.004	2.17	–
333.15 K, x1 = 0.008	3.78	–
333.15 K, x1 = 0.019	6.17	–
333.15 K, x2 = 0.5596	–	14
333.15 K, x2 = 0.6542	–	9.62
333.15 K, x2 = 0.704	2.04	–
333.15 K, x2 = 0.7495	–	6.25
333.15 K, x2 = 0.785	3.21	–
333.15 K, x2 = 0.796	3.36	–
333.15 K, x2 = 0.8521	–	3.29
333.15 K, x2 = 0.861	5.75	–
333.15 K, x2 = 0.892	6.73	–
333.15 K, x2 = 0.9254	–	1.742
333.15 K, x2 = 0.929	7.9	–
333.15 K, x2 = 0.951	8.3	–
333.15 K, x2 = 0.975	–	0.79
334.15 K, x1 = 0.004	2.18	–
334.15 K, x1 = 0.008	3.93	–
334.15 K, x1 = 0.019	6.35	–
334.15 K, x2 = 0.704	2.12	–
334.15 K, x2 = 0.785	3.28	–
334.15 K, x2 = 0.796	3.43	–
334.15 K, x2 = 0.861	5.94	–
334.15 K, x2 = 0.892	6.95	–
334.15 K, x2 = 0.929	8.03	–
334.15 K, x2 = 0.951	8.46	–
335.15 K, x1 = 0.008	3.98	–
335.15 K, x1 = 0.019	6.33	–
335.15 K, x2 = 0.704	2.17	–
335.15 K, x2 = 0.785	3.35	–
335.15 K, x2 = 0.796	3.52	–
335.15 K, x2 = 0.861	5.97	–
335.15 K, x2 = 0.892	7.12	–
335.15 K, x2 = 0.929	8.18	–
335.15 K, x2 = 0.951	8.59	–
335.15 K, x2 = 0.968	7.93	–
336.15 K, x1 = 0.008	4.04	–
336.15 K, x1 = 0.019	6.42	–
336.15 K, x2 = 0.704	2.19	–
336.15 K, x2 = 0.785	3.42	–
336.15 K, x2 = 0.796	3.59	–
336.15 K, x2 = 0.861	6.09	–
336.15 K, x2 = 0.892	7.28	–
336.15 K, x2 = 0.929	8.3	–
336.15 K, x2 = 0.968	8.02	–
337.15 K, x1 = 0.004	2.29	–
337.15 K, x1 = 0.008	4.1	–
337.15 K, x1 = 0.019	6.53	–
337.15 K, x2 = 0.704	2.3	–
337.15 K, x2 = 0.785	3.52	–
337.15 K, x2 = 0.892	7.41	–
337.15 K, x2 = 0.951	8.9	–
337.15 K, x2 = 0.968	8.19	–
338.15 K, x1 = 0.004	2.31	–
338.15 K, x1 = 0.008	4.15	–
338.15 K, x2 = 0.704	2.35	–
338.15 K, x2 = 0.892	7.53	–
338.15 K, x2 = 0.929	8.57	–
338.15 K, x2 = 0.968	8.14	–
339.15 K, x1 = 0.004	2.35	–
339.15 K, x1 = 0.008	4.19	–
339.15 K, x1 = 0.019	6.73	–
339.15 K, x2 = 0.704	2.42	–
339.15 K, x2 = 0.785	3.67	–
339.15 K, x2 = 0.796	3.85	–
339.15 K, x2 = 0.861	6.47	–
339.15 K, x2 = 0.892	7.69	–
339.15 K, x2 = 0.929	8.73	–
339.15 K, x2 = 0.951	9.11	–
340.15 K, x1 = 0.004	2.39	–
340.15 K, x1 = 0.008	4.25	–
340.15 K, x1 = 0.019	6.83	–
340.15 K, x2 = 0.704	2.47	–
340.15 K, x2 = 0.785	3.75	–
340.15 K, x2 = 0.796	3.93	–
340.15 K, x2 = 0.861	6.6	–
340.15 K, x2 = 0.892	7.77	–
340.15 K, x2 = 0.929	8.85	–
340.15 K, x2 = 0.951	9.22	–
340.15 K, x2 = 0.968	8.56	–
341.15 K, x1 = 0.004	2.42	–
341.15 K, x1 = 0.008	4.29	–
341.15 K, x1 = 0.019	6.96	–
341.15 K, x2 = 0.704	2.54	–
341.15 K, x2 = 0.785	3.84	–
341.15 K, x2 = 0.796	4.07	–
341.15 K, x2 = 0.861	6.71	–
341.15 K, x2 = 0.929	9.03	–
341.15 K, x2 = 0.951	9.15	–
341.15 K, x2 = 0.968	8.57	–
342.15 K, x1 = 0.008	4.35	–
342.15 K, x1 = 0.019	6.93	–
342.15 K, x2 = 0.704	2.61	–
342.15 K, x2 = 0.796	4.11	–
342.15 K, x2 = 0.929	9.18	–
342.15 K, x2 = 0.951	9.55	–
342.15 K, x2 = 0.968	8.66	–
343.15 K, x1 = 0.008	4.38	–
343.15 K, x1 = 0.019	7.17	–
343.15 K, x2 = 0.5596	–	10.6
